Results on 18 molecules are retold here after patent publication US10968178B2, “IP6K inhibitors” (TAKEDA PHARMACEUTICAL COMPANY LIMITED, priority 2017, dated 2021).

Holding throughout (format): biochemical
The target in one experiment is T1, human IP6K1 (Homo sapiens, UniProt Q92551).
T1 construct: human IP6K1 (1-441) gene; GST; made in house; host or cells: Sf-9 insect cells
In words: IP6K enzyme inhibitory assay (ADP-Glo Kinase Assay), human IP6K1. The settings on record: compound concentration 0.1 μM; for inhibition at 0.1 µM: read-out: ADP-Glo method inhibitory rate (%) human IP6K1. How it is done:
(§1) IP6K Enzyme Inhibitory Assay
(§2) Human IP6K3 enzyme was prepared by transducing human IP6K3 (1-410) gene into BL21 (DE3) Escherichia coli and purifying by Ni-NTA (nickel-nitrilotriacetic acid) affinity column. […] The enzymes were used after preservation at −70° C. The IP6K enzyme inhibitory activity of the test compound was measured by the following experiment method and using ADP-Glo™ Kinase Assay (manufactured by Promega). A test compound diluted with an assay buffer (20 mM HEPES (pH 7.5), 6 mM MgCl2, 0.01% Tween-20, 1 mM DTT) was first added by 2 μL to a 384 well plate. […] The IP6K enzyme solution diluted with the assay buffer was added by 2 μL to start the enzyme reaction. Incubation was performed at room temperature for a given time (120 min for rat IP6K3 alone, 60 min for others). After incubation at room temperature, ADP-Glo solution prepared according to the protocol of Promega was added by 3 μL to the 384 well plate and reacted at room temperature for 30 min. Thereafter, Kinase-Detection solution was added by 6 μL to the 384 well plate and reacted at room temperature for 60 min. After the reaction, the luminescence intensity was measured by a plate reader Envision (manufactured by PerkinElmer).
(ADP-Glo first removes unused ATP, then detects ADP through luciferase.)

For the next experiment, the target named is T2, human IP6K2 (Homo sapiens, UniProt Q9UHH9).
T2 construct: human IP6K2 (1-426) gene; GST; made in house; host or cells: Sf-9 insect cells
T2 sequence (Q9UHH9 1-426): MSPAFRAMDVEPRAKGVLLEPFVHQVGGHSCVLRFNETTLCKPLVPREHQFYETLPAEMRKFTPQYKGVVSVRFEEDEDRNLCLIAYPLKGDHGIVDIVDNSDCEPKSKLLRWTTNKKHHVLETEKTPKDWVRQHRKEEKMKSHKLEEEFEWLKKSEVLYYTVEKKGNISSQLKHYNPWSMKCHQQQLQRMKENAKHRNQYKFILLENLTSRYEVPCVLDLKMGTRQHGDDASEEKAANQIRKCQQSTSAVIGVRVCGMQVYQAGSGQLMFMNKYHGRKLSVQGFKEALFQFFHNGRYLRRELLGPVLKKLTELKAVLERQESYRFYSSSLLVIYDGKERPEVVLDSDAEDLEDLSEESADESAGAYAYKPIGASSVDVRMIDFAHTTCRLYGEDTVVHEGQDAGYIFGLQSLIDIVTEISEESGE
In words: IP6K enzyme inhibitory assay (ADP-Glo Kinase Assay), human IP6K2. The settings on record: compound concentration 0.1 μM; for inhibition at 0.1 µM: read-out: ADP-Glo method inhibitory rate (%) human IP6K2. The method, then: as §1, §2

In a further experiment the target is T3, human IP6K3 (Homo sapiens, UniProt Q96PC2).
T3 construct: human IP6K3 (1-410) gene; made in house; host or cells: BL21 (DE3) Escherichia coli
T3 sequence (Q96PC2 1-410): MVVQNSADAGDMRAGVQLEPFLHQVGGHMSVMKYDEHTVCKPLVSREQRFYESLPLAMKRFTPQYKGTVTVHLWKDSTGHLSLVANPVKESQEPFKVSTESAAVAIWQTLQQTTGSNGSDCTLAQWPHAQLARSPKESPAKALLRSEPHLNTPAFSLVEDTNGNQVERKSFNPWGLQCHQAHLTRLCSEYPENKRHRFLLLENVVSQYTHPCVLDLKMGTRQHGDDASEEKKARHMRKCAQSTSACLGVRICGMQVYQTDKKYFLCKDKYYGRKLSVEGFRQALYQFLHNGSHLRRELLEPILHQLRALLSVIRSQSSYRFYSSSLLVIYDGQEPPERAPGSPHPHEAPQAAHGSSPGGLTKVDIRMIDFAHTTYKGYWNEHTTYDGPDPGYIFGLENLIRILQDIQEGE
In words: IP6K enzyme inhibitory assay (ADP-Glo Kinase Assay), human IP6K3. The settings on record: compound concentration 0.1 μM; for inhibition at 0.1 µM: read-out: ADP-Glo method inhibitory rate (%) human IP6K3. The method, then: as §1, §2

T1 sequence (Q92551 whole entry): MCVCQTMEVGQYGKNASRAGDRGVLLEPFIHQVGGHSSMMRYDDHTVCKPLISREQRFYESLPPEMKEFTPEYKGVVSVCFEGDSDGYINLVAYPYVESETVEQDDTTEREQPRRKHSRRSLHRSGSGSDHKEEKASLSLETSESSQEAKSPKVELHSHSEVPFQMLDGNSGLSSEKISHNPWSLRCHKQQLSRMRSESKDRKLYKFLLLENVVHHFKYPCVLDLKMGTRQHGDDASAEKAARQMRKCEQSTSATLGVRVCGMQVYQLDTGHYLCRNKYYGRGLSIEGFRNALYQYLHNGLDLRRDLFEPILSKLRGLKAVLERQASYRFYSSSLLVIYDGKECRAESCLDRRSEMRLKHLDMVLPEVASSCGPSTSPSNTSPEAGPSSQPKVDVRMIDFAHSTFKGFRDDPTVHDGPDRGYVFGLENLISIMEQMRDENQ

On to `O=C(O)c1ccc2c(c1)[C@]1(CC[C@@H](Oc3ncc(C4CC4)cc3C(F)(F)F)CC1)C(=O)N2` [Example 31, (1r,4r)-4-((5-cyclopropyl-3-(trifluoromethyl)pyridin-2-yl)oxy)-2′-oxo-1′,2′-dihydrospiro[cyclohexane-1,3′-indole]-5′-carboxylic acid], for which the inhibition at 0.1 µM worked out at 101% at human IP6K1, 101% on human IP6K2 and 100% on human IP6K3.
With `Cc1ncccc1O[C@H]1CC[C@@]2(CC1)C(=O)Nc1ccc(C(=O)O)cc12` [Example 32, (1r,4r)-4-((2-methylpyridin-3-yl)oxy)-2′-oxo-1′,2′-dihydrospiro[cyclohexane-1,3′-indole]-5′-carboxylic acid], the inhibition at 0.1 µM at human IP6K1 was determined as 63%; at human IP6K2, 67%; at human IP6K3 it was 88%.
For the molecule `Cc1cncc(O[C@H]2CC[C@@]3(CC2)C(=O)Nc2ccc(C(=O)O)cc23)c1` [Example 33, (1r,4r)-4-((5-methylpyridin-3-yl)oxy)-2′-oxo-1′,2′-dihydrospiro[cyclohexane-1,3′-indole]-5′-carboxylic acid], the figures for the inhibition at 0.1 µM on human IP6K1, at human IP6K2 and on human IP6K3 were 37%, 40% and 74%, respectively.
As for `Cc1ccc(O[C@H]2CC[C@@]3(CC2)C(=O)Nc2ccc(C(=O)O)cc23)cn1` [Example 34, (1r,4r)-4-((6-methylpyridin-3-yl)oxy)-2′-oxo-1′,2′-dihydrospiro[cyclohexane-1,3′-indole]-5′-carboxylic acid], the inhibition at 0.1 µM on human IP6K1 turned out to be 63%; at human IP6K2, 76%; at human IP6K3, 91%.
Take `Cc1ccc(O[C@H]2CC[C@@]3(CC2)C(=O)Nc2ccc(C(=O)O)cc23)c(C)n1` [Example 35, (1r,4r)-4-((2,6-dimethylpyridin-3-yl)oxy)-2′-oxo-1′,2′-dihydrospiro[cyclohexane-1,3′-indole]-5′-carboxylic acid]: the inhibition at 0.1 µM at human IP6K1 worked out at 82%; on human IP6K2 it was 96%; on human IP6K3, 98%.
For the molecule `Cc1cc(C)c(O[C@H]2CC[C@@]3(CC2)C(=O)Nc2ccc(C(=O)O)cc23)cn1` [Example 36, (1r,4r)-4-((4,6-dimethylpyridin-3-yl)oxy)-2′-oxo-1′,2′-dihydrospiro[cyclohexane-1,3′-indole]-5′-carboxylic acid], the inhibition at 0.1 µM came out at 72% at human IP6K1, 92% on human IP6K2 and 95% on human IP6K3.
On the same counts, the results for `O=C(O)c1ccc2c(c1)[C@]1(CC[C@@H](Oc3cnc4c(c3)CCCO4)CC1)C(=O)N2` [Example 37, (1r,4r)-4-(3,4-dihydro-2H-pyrano[2,3-b]pyridin-6-yloxy)-2′-oxo-1′,2′-dihydrospiro[cyclohexane-1,3′-indole]-5′-carboxylic acid] are 51%, 50% and 82%.
On the same counts, the results for `Cc1cc(C)nc(O[C@H]2CC[C@@]3(CC2)C(=O)Nc2ccc(C(=O)O)cc23)n1` [Example 38, (1r,4r)-4-((4,6-dimethylpyrimidin-2-yl)oxy)-2′-oxo-1′,2′-dihydrospiro[cyclohexane-1,3′-indole]-5′-carboxylic acid] are 55%, 47% and 86%.
On the same counts, the results for `Cc1nc(O[C@H]2CC[C@@]3(CC2)C(=O)Nc2ccc(C(=O)O)cc23)nc(C)c1Cl` [Example 39, (1r,4r)-4-((5-chloro-4,6-dimethylpyrimidin-2-yl)oxy)-2′-oxo-1′,2′-dihydrospiro[cyclohexane-1,3′-indole]-5′-carboxylic acid] are 80%, 74% and 95%.
Take `Cc1cc(O[C@H]2CC[C@@]3(CC2)C(=O)Nc2ccc(C(=O)O)cc23)nc(C)n1` [Example 40, (1r,4r)-4-((2,6-dimethylpyrimidin-4-yl)oxy)-2′-oxo-1′,2′-dihydrospiro[cyclohexane-1,3′-indole]-5′-carboxylic acid]: the figures for the inhibition at 0.1 µM at human IP6K1, on human IP6K2 and at human IP6K3 were 14%, 18% and 49%, respectively.
Turning to `Cc1ccccc1O[C@H]1CC[C@@]2(CC1)C(=O)Nc1ccc(C(=O)O)cc12` [Example 41, (1r,4r)-4-(2-methylphenoxy)-2′-oxo-1′,2′-dihydrospiro[cyclohexane-1,3′-indole]-5′-carboxylic acid], the inhibition at 0.1 µM at human IP6K1 amounted to 93%; at human IP6K2, 93%; on human IP6K3 it was 98%.
With `Cc1cccc(O[C@H]2CC[C@@]3(CC2)C(=O)Nc2ccc(C(=O)O)cc23)c1` [Example 42, (1r,4r)-4-(3-methylphenoxy)-2′-oxo-1′,2′-dihydrospiro[cyclohexane-1,3′-indole]-5′-carboxylic acid], the results for the inhibition at 0.1 µM at human IP6K1, on human IP6K2 and at human IP6K3 were 81%, 90% and 97%, respectively.
In the same order, the values of `Cc1ccc(O[C@H]2CC[C@@]3(CC2)C(=O)Nc2ccc(C(=O)O)cc23)cc1` [Example 43, (1r,4r)-4-(4-methylphenoxy)-2′-oxo-1′,2′-dihydrospiro[cyclohexane-1,3′-indole]-5′-carboxylic acid] are 98%, 99% and 100%.
On the same counts, the results for `N#Cc1ccccc1O[C@H]1CC[C@@]2(CC1)C(=O)Nc1ccc(C(=O)O)cc12` [Example 44, (1r,4r)-4-(2-cyanophenoxy)-2′-oxo-1′,2′-dihydrospiro[cyclohexane-1,3′-indole]-5′-carboxylic acid] are 88%, 83% and 94%.
Take `N#Cc1ccc(O[C@H]2CC[C@@]3(CC2)C(=O)Nc2ccc(C(=O)O)cc23)cc1` [Example 45, (1r,4r)-4-(4-cyanophenoxy)-2′-oxo-1′,2′-dihydrospiro[cyclohexane-1,3′-indole]-5′-carboxylic acid]: the figures for the inhibition at 0.1 µM at human IP6K1, at human IP6K2 and on human IP6K3 were 96%, 93% and 97%, respectively.
`Cc1ccc(O[C@H]2CC[C@@]3(CC2)C(=O)Nc2ccc(C(=O)O)cc23)cc1C` [Example 46, (1r,4r)-4-(3,4-dimethylphenoxy)-2′-oxo-1′,2′-dihydrospiro[cyclohexane-1,3′-indole]-5′-carboxylic acid]: the inhibition at 0.1 µM at human IP6K1 came out at 97%; at human IP6K2, 98%; on human IP6K3 it was 99%.
As for `Cc1ccc(O[C@H]2CC[C@@]3(CC2)C(=O)Nc2ccc(C(=O)O)cc23)c(C)c1` [Example 47, (1r,4r)-4-(2,4-dimethylphenoxy)-2′-oxo-1′,2′-dihydrospiro[cyclohexane-1,3′-indole]-5′-carboxylic acid], the “ADP-Glo method inhibitory rate (%) human IP6K1” value at human IP6K1 came to 99%. On human IP6K2, the “ADP-Glo method inhibitory rate (%) human IP6K2” value turned out to be 96%. Besides, the “ADP-Glo method inhibitory rate (%) human IP6K3” value on human IP6K3 was 99%.
On to `Cc1cc(C)cc(O[C@H]2CC[C@@]3(CC2)C(=O)Nc2ccc(C(=O)O)cc23)c1` [Example 48, (1r,4r)-4-(3,5-dimethylphenoxy)-2′-oxo-1′,2′-dihydrospiro[cyclohexane-1,3′-indole]-5′-carboxylic acid], for which the results for the inhibition at 0.1 µM at human IP6K1, at human IP6K2 and on human IP6K3 were 86%, 91% and 97%, respectively.
